Measured values taken from patent US9549921B2, “Heterocyclic compounds and methods of use thereof for the treatment of hepatitis C” (priority 2014, dated 2017).

How the values were obtained:
HCV replicon genotype 1b = assay: HCV replicon assay, genotype 1b (cell ELISA for NS3/4A); assay type: cell-based, hepatitis C virus; conditions: Hepatitis C virus, 96 h, read-out: 1b IC50 (nM), HCV genotype 1b replicon cells, 96 hours incubation, NS3/4A ELISA readout, % of DMSO control
Method in brief: (§1)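 Readout is NS3/4A protein level from an antibody-based cell ELISA, serving as an indirect measure of replicon RNA; IC50 fitted with a four-parameter function relative to DMSO control. Replicon cells, kept under G418 beforehand, were plated with serial compound dilutions minus G418 for 96 hours.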

HCV replicon genotype 1a = assay: HCV replicon assay, genotype 1a (cell ELISA for NS3/4A); assay type: cell-based, hepatitis C virus; conditions: Hepatitis C virus, 96 h, read-out: 1a IC50 (nM), HCV genotype 1a replicon cells, 96 hours incubation, NS3/4A ELISA readout, % of DMSO control
Method in brief: as §1

Row | Compound | IC50 (HCV replicon genotype 1b) [nM] | IC50 (HCV replicon genotype 1a) [nM]
1 | CNC(=O)c1c(-c2ccc(F)cc2)oc2cc(N(C)S(C)(=O)=O)c([C@@H]3CCCN(S(=O)(=O)c4ccccc4)C3)cc12 [Example 117, 2-(4-fluorophenyl)-N-methyl-6-[methyl(methylsulfonyl)amino]-5-[(3S)-1-(phenylsulfonyl)piperidin-3-yl]-1-benzofuran-3-carboxamide] | 9.37 | 32.3
2 | CNC(=O)c1c(-c2ccc(F)cc2)oc2cc(N(C)S(C)(=O)=O)c([C@@H]3CCCN(S(=O)(=O)c4c(Cl)nc5sccn45)C3)cc12 [Example 118, 5-{(3S)-1-[(6-chloroimidazo[2,1-b][1,3]thiazol-5-yl)sulfonyl]piperidin-3-yl}-2-(4-fluorophenyl)-N-methyl-6-[methyl(methylsulfonyl)amino]-1-benzofuran-3-carboxamide] | 8.36 | 41
3 | CNC(=O)c1c(-c2ccc(F)cc2)oc2cc(N(C)S(C)(=O)=O)c([C@@H]3CCCN(S(=O)(=O)c4ccccc4F)C3)cc12 [Example 119, 2-(4-fluorophenyl)-5-{(3S)-1-[(2-fluorophenyl)sulfonyl]piperidin-3-yl}-N-methyl-6-[methyl(methylsulfonyl)amino]-1-benzofuran-3-carboxamide] | 10.9 | 24.5
4 | CNC(=O)c1c(-c2ccc(F)cc2)oc2cc(N(C)S(C)(=O)=O)c([C@@H]3CCCN(S(=O)(=O)c4cccc5nonc45)C3)cc12 [Example 120, 5-[(3S)-1-(2,1,3-benzoxadiazol-4-ylsulfonyl)piperidin-3-yl]-2-(4-fluorophenyl)-N-methyl-6-[methyl(methylsulfonyl)amino]-1-benzofuran-3-carboxamide] | 8.37 | 22.4
5 | CNC(=O)c1c(-c2ccc(F)cc2)oc2cc(N(C)S(C)(=O)=O)c([C@@H]3CCCN(S(=O)(=O)Cc4ccccc4)C3)cc12 [Example 121, 5-[(3S)-1-(benzylsulfonyl)piperidin-3-yl]-2-(4-fluorophenyl)-N-methyl-6-[methyl(methylsulfonyl)amino]-1-benzofuran-3-carboxamide] | 23.8 | 47.5
6 | CNC(=O)c1c(-c2ccc(F)cc2)oc2cc(N(C)S(C)(=O)=O)c([C@@H]3CCCN(S(=O)(=O)c4ccc5c(c4)CC(=O)N5)C3)cc12 [Example 122, 2-(4-fluorophenyl)-N-methyl-6-[methyl(methylsulfonyl)amino]-5-{(3S)-1-[(2-oxo-2,3-dihydro-1H-indol-5-yl)sulfonyl]piperidin-3-yl}-1-benzofuran-3-carboxamide] | 22.1 | 78.8
7 | CNC(=O)c1c(-c2ccc(F)cc2)oc2cc(N(C)S(C)(=O)=O)c([C@@H]3CCCN(S(=O)(=O)Cc4ccccn4)C3)cc12 [Example 123, 2-(4-fluorophenyl)-N-methyl-6-[methyl(methylsulfonyl)amino]-5-{(3S)-1-[(pyridin-2-ylmethyl)sulfonyl]piperidin-3-yl}-1-benzofuran-3-carboxamide] | 29.8 | 106
8 | CNC(=O)c1c(-c2ccc(F)cc2)oc2cc(N(C)S(C)(=O)=O)c([C@@H]3CCCN(S(=O)(=O)CCc4ccccc4)C3)cc12 [Example 124, 2-(4-fluorophenyl)-N-methyl-6-[methyl(methylsulfonyl)amino]-5-{(3S)-1-[(2-phenylethyl)sulfonyl]piperidin-3-yl}-1-benzofuran-3-carboxamide] | 72.9 | 182
9 | CNC(=O)c1c(-c2ccc(F)cc2)oc2cc(N(C)S(C)(=O)=O)c([C@@H]3CCCN(S(=O)(=O)c4cnc5n4CCCCC5)C3)cc12 [Example 125, 2-(4-fluorophenyl)-N-methyl-6-[methyl(methylsulfonyl)amino]-5-[(3S)-1-(6,7,8,9-tetrahydro-5H-imidazo[1,2-a]azepin-3-ylsulfonyl)piperidin-3-yl]-1-benzofuran-3-carboxamide] | 67.6 | 172
10 | CNC(=O)c1c(-c2ccc(F)cc2)oc2cc(N(C)S(C)(=O)=O)c([C@@H]3CCCN(S(=O)(=O)c4cccc(C)c4)C3)cc12 [Example 126, 2-(4-fluorophenyl)-N-methyl-6-[methyl(methylsulfonyl)amino]-5-{(3S)-1-[(3-methylphenyl)sulfonyl]piperidin-3-yl}-1-benzofuran-3-carboxamide] | 13.2 | 46.9
11 | CNC(=O)c1c(-c2ccc(F)cc2)oc2cc(N(C)S(C)(=O)=O)c([C@@H]3CCCN(S(=O)(=O)c4cnc5c(c4)OCCN5C)C3)cc12 [Example 127, 2-(4-fluorophenyl)-N-methyl-5-{(3S)-1-[(4-methyl-3,4-dihydro-2H-pyrido[3,2-b][1,4]oxazin-7-yl)sulfonyl]piperidin-3-yl}-6-[methyl(methylsulfonyl)amino]-1-benzofuran-3-carboxamide] | 32.4 | 90.2
12 | CNC(=O)c1c(-c2ccc(F)cc2)oc2cc(N(C)S(C)(=O)=O)c([C@H]3CCCN(S(=O)(=O)c4ccccc4C)C3)cc12 [Example 128, 2-(4-fluorophenyl)-N-methyl-6-[methyl(methylsulfonyl)amino]-5-{(3R)-1-[(2-methylphenyl)sulfonyl]piperidin-3-yl}-1-benzofuran-3-carboxamide] | 24.2 | 34.2
13 | CNC(=O)c1c(-c2ccc(F)cc2)oc2cc(N(C)S(C)(=O)=O)c([C@H]3CCCN(S(=O)(=O)c4ccc5ncsc5c4)C3)cc12 [Example 129, 5-[(3R)-1-(1,3-benzothiazol-6-ylsulfonyl)piperidin-3-yl]-2-(4-fluorophenyl)-N-methyl-6-[methyl(methylsulfonyl)amino]-1-benzofuran-3-carboxamide] | 110 | 194
14 | CNC(=O)c1c(-c2ccc(F)cc2)oc2cc(N(C)S(C)(=O)=O)c([C@H]3CCCN(S(=O)(=O)c4cccc(F)c4)C3)cc12 [Example 130, 2-(4-fluorophenyl)-5-{(3R)-1-[(3-fluorophenyl)sulfonyl]piperidin-3-yl}-N-methyl-6-[methyl(methylsulfonyl)amino]-1-benzofuran-3-carboxamide] | 95.5 | 174
15 | CNC(=O)c1c(-c2ccc(F)cc2)oc2cc(N(C)S(C)(=O)=O)c([C@H]3CCCN(S(=O)(=O)c4ccc(F)cc4)C3)cc12 [Example 131, 2-(4-fluorophenyl)-5-{(3R)-1-[(4-fluorophenyl)sulfonyl]piperidin-3-yl}-N-methyl-6-[methyl(methylsulfonyl)amino]-1-benzofuran-3-carboxamide] | 88.9 | 176
16 | CNC(=O)c1c(-c2ccc(F)cc2)oc2cc(N(C)S(C)(=O)=O)c([C@H]3CCCN(S(=O)(=O)C4CCCCC4)C3)cc12 [Example 132, 5-[(3R)-1-(cyclohexylsulfonyl)piperidin-3-yl]-2-(4-fluorophenyl)-N-methyl-6-[methyl(methylsulfonyl)amino]-1-benzofuran-3-carboxamide] | 56.1 | 93.3
17 | CNC(=O)c1c(-c2ccc(F)cc2)oc2cc(N(C)S(C)(=O)=O)c([C@H]3CCCN(S(=O)(=O)c4c(Cl)nc5sccn45)C3)cc12 [Example 133, 5-{(3R)-1-[(6-chloroimidazo[2,1-b][1,3]thiazol-5-yl)sulfonyl]piperidin-3-yl}-2-(4-fluorophenyl)-N-methyl-6-[methyl(methylsulfonyl)amino]-1-benzofuran-3-carboxamide] | 74.7 | 106
18 | CNC(=O)c1c(-c2ccc(F)cc2)oc2cc(N(C)S(C)(=O)=O)c([C@H]3CCCN(S(=O)(=O)c4ccccc4)C3)cc12 [Example 134, 2-(4-fluorophenyl)-N-methyl-6-[methyl(methylsulfonyl)amino]-5-[(3R)-1-(phenylsulfonyl)piperidin-3-yl]-1-benzofuran-3-carboxamide] | 58.3 | 85.9
19 | CNC(=O)c1c(-c2ccc(F)cc2)oc2cc(N(C)S(C)(=O)=O)c([C@H]3CCCN(S(=O)(=O)C4CCCC4)C3)cc12 [Example 135, 5-[(3R)-1-(cyclopentylsulfonyl)piperidin-3-yl]-2-(4-fluorophenyl)-N-methyl-6-[methyl(methylsulfonyl)amino]-1-benzofuran-3-carboxamide] | 45.6 | 80.4
20 | CNC(=O)c1c(-c2ccc(F)cc2)oc2cc(N(C)S(C)(=O)=O)c([C@H]3CCCN(S(=O)(=O)c4ccccc4F)C3)cc12 [Example 136, 2-(4-fluorophenyl)-5-{(3R)-1-[(2-fluorophenyl)sulfonyl]piperidin-3-yl}-N-methyl-6-[methyl(methylsulfonyl)amino]-1-benzofuran-3-carboxamide] | 40.5 | 58.5
21 | CNC(=O)c1c(-c2ccc(F)cc2)oc2cc(N(C)S(C)(=O)=O)c([C@H]3CCCN(S(=O)(=O)Cc4ccccc4)C3)cc12 [Example 137, 5-[(3R)-1-(benzylsulfonyl)piperidin-3-yl]-2-(4-fluorophenyl)-N-methyl-6-[methyl(methylsulfonyl)amino]-1-benzofuran-3-carboxamide] | 3.04 | 2.15
22 | CNC(=O)c1c(-c2ccc(F)cc2)oc2cc(N(C)S(C)(=O)=O)c([C@H]3CCCN(S(=O)(=O)c4cccc5nonc45)C3)cc12 [Example 138, 5-[(3R)-1-(2,1,3-benzoxadiazol-4-ylsulfonyl)piperidin-3-yl]-2-(4-fluorophenyl)-N-methyl-6-[methyl(methylsulfonyl)amino]-1-benzofuran-3-carboxamide] | 55.7 | 139
23 | CNC(=O)c1c(-c2ccc(F)cc2)oc2cc(N(C)S(C)(=O)=O)c([C@H]3CCCN(S(=O)(=O)Cc4ccccn4)C3)cc12 [Example 139, 2-(4-fluorophenyl)-N-methyl-6-[methyl(methylsulfonyl)amino]-5-{(3R)-1-[(pyridin-2-ylmethyl)sulfonyl]piperidin-3-yl}-1-benzofuran-3-carboxamide] | 21.1 | 35
